# Measured values as given in patent publication US20160158200A1, “Combinations of Hepatitis C Virus Inhibitors” (priority 2013, published 2016).
# System: HCV genotype-1a variant with glutamine 30 changed to glutamate in the NS5A protein
# Assay type: cell-based
# Settings: test compound titrated with BMS-790052 fixed at 200 nM; genotype 1a Q30E replicon
# Summary of the method: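 Synergy was assessed by combining several fixed amounts of an NS5A-targeting compound with a titration of the second compound of interest.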
row,SMILES,Fold-Synergistic 1a (Q30E) [fold]
1,CC(C)[C@H](NC(=O)C1CCC(F)(F)CC1)c1ncc(-c2ccc3cc(-c4ccc5nc([C@@H](NC(=O)C6CCC(F)(F)CC6)C(C)C)[nH]c5c4)ccc3c2)[nH]1 [Compound B55],>100
2,CC(C)(C)[C@H](NC(=O)[C@@](C)(O)c1ccccc1)c1nc(-c2ccc(-c3ccc(-c4c[nH]c([C@@H](NC(=O)[C@@](C)(O)c5ccccc5)C(C)(C)C)n4)cc3)cc2)c[nH]1 [Compound L-95],>100
3,"CC(C)[C@H](NC(=O)C1CCCCO1)c1ncc(-c2ccc(-c3ccc(-c4cnc([C@@H](NC(=O)C5CCCCO5)C(C)C)[nH]4)cc3)cc2)[nH]1 (single isomer, unassigned) [Compound Y-55]",>10
4,CC(C)(F)C(=O)N[C@H](c1ncc(-c2ccc(-c3ccc(-c4cnc([C@@H](NC(=O)C(C)(C)F)C5(C)CC5)[nH]4)cc3)cc2)[nH]1)C1(C)CC1 [Compound Y-36],>100
5,CCn1nc(C)cc1C(=O)N[C@H](c1ncc(-c2ccc(-c3ccc(-c4cnc([C@@H](NC(=O)c5cc(C)nn5CC)C(C)C)[nH]4)cc3)cc2)[nH]1)C(C)C [Compound S-99],>10
6,"CC1(C)C2CCC(C(=O)N[C@H](c3nc(-c4ccc(-c5ccc(-c6c[nH]c([C@@H](NC(=O)C78CCC(C7)C(C)(C)C8O)C7(C)CC7)n6)cc5)cc4)c[nH]3)C3(C)CC3)(C2)C1O (single isomer, unassigned) [Compound Y-117]",>100
7,CC(C)(C)OC(=O)N1C2CCC1(C(=O)N[C@H](c1nc(-c3ccc(-c4ccc(-c5c[nH]c([C@@H](NC(=O)C67CCC(CC6)N7C(=O)OC(C)(C)C)C(C)(C)C)n5)cc4)cc3)c[nH]1)C(C)(C)C)CC2 [Compound W-85],>100
8,CC(C)[C@H](NC(=O)C(C)(C)C)c1ncc(-c2ccc(-c3ccc(-c4cnc([C@@H](NC(=O)C(C)(C)C)C(C)C)o4)cc3)cc2)o1 [Compound N-2],>100
9,CC(C)[C@H](NC(=O)N(c1ccccc1)c1ccccc1)c1nc(-c2ccc(-c3ccc(-c4c[nH]c([C@@H](NC(=O)N(c5ccccc5)c5ccccc5)C(C)C)n4)cc3)cc2)c[nH]1 [Compound S-227],>100
10,CC(C)(C)[C@H](NC(=O)C(=O)N1C(C)(C)CCCC1(C)C)c1nc(-c2ccc(-c3ccc(-c4c[nH]c([C@@H](NC(=O)C(=O)N5C(C)(C)CCCC5(C)C)C(C)(C)C)n4)cc3)cc2)c[nH]1 [Compound W-248],>100
11,C#CCOC(=O)N1CCC[C@H]1c1ncc(-c2ccc(-c3ccc(-c4cnc([C@@H]5CCCN5C(=O)OCC#C)[nH]4)cc3)cc2)[nH]1 [Compound S-224],>10
12,CC(C)C(NC(=O)C(C)(C)C(O)C1CC1)c1nc(-c2ccc(-c3ccc(-c4c[nH]c(C(NC(=O)C(C)(C)C(O)C5CC5)C(C)C)n4)cc3)cc2)c[nH]1 (mixture of isomers) [Compound N-149],>100
13,CC(C)(C)[C@H](NC(=O)C1(C2(O)CCC(F)(F)CC2)CC1)c1nc(-c2ccc(-c3ccc4c(c3)CCc3nc([C@@H](NC(=O)C5(C6(O)CCC(F)(F)CC6)CC5)C(C)(C)C)[nH]c3-4)cc2)c[nH]1 [Compound B13B],>100
14,COC1CC(C(=O)NC(c2nc(-c3ccc(-c4ccc(-c5c[nH]c(C(NC(=O)C6CC(OC)C6)C(C)(C)C)n5)cc4)cc3)c[nH]2)C(C)(C)C)C1 [Compound L-54],>100
15,"COC(C)(CCO)C(=O)N[C@H](c1nc(-c2ccc(-c3ccc(-c4c[nH]c([C@@H](NC(=O)C(C)(CCO)OC)C(C)(C)C)n4)cc3)cc2)c[nH]1)C(C)(C)C (single isomer, unassigned) [Compound W-258]",>100
16,CC(C)[C@H](NC(=O)C(=O)c1ccncc1F)c1ncc(-c2ccc(-c3ccc(-c4cnc([C@@H](NC(=O)C(=O)c5ccncc5F)C(C)C)[nH]4)cc3)cc2)[nH]1 [Compound P-121],>100
17,CC(C)(C)[C@H](NC(=O)CC1CCCCC1)c1nc(-c2ccc(-c3ccc(-c4c[nH]c([C@@H](NC(=O)CC5CCCCC5)C(C)(C)C)n4)cc3)cc2)c[nH]1 [Compound N-50],>100
18,CCN(CC(F)(F)F)C(=O)C(=O)N[C@H](c1nc(-c2ccc(-c3ccc(-c4c[nH]c([C@@H](NC(=O)C(=O)N(CC)CC(F)(F)F)C(C)(C)C)n4)cc3)cc2)c[nH]1)C(C)(C)C [Compound W-37],>100
19,COCC(NC(=O)C1(C(F)(F)F)CCC1)c1nc(-c2ccc(-c3ccc(-c4c[nH]c(C(COC)NC(=O)C5(C(F)(F)F)CCC5)n4)cc3)cc2)c[nH]1 [Compound L-104],>100
20,C[C@H]1CCN(C(=O)C(=O)N2C(C)(C)CCCC2(C)C)C1c1nc(-c2ccc(-c3ccc(-c4c[nH]c(C5[C@@H](C)CCN5C(=O)C(=O)N5C(C)(C)CCCC5(C)C)n4)cc3)cc2)c[nH]1 (stereo partly drawn) [Compound W-249],>100

row,SMILES,Fold-Synergistic 1a (Q30E) [fold]
1,"CC(C)(F)C(NC(=O)C1CCC(F)(F)CC1)c1nc(-c2ccc(-c3ccc(-c4c[nH]c(C(NC(=O)C5CCC(F)(F)CC5)C(C)(C)F)n4)cc3)cc2)c[nH]1 (single isomer, unassigned) [Compound N-106B]",>100
2,CCC(C)(C)C(=O)N[C@H](c1ncc(-c2ccc(-c3ccc(-c4cnc([C@@H](NC(=O)C(C)(C)CC)C(C)C)[nH]4)cc3)cc2)[nH]1)C(C)C [Compound P-68],>100
3,CC(C)(C)C(NC(=O)CC1CCCO1)c1nc(-c2ccc(-c3ccc(-c4c[nH]c(C(NC(=O)CC5CCCO5)C(C)(C)C)n4)cc3)cc2)c[nH]1.O=C(O)C(F)(F)F.O=C(O)C(F)(F)F (mixture of isomers) [Compound L-70],>100
4,CC1([C@H](NC(=O)N2CCC(F)(F)CC2)c2nc(-c3ccc(-c4ccc(-c5c[nH]c([C@@H](NC(=O)N6CCC(F)(F)CC6)C6(C)CC6)n5)cc4)cc3)c[nH]2)CC1 [Compound P-135],>100
5,CC(C)[C@H](NC(=O)N1CCC(F)(F)CC1)c1nc(-c2ccc(-c3ccc(-c4c[nH]c([C@@H](NC(=O)N5CCC(F)(F)CC5)C(C)C)n4)cc3)cc2)c[nH]1 [Compound P-130],>100
6,O=C(C(=O)N1CCCC1c1nc(-c2ccc(-c3ccc(-c4c[nH]c([C@@H]5CCCN5C(=O)C(=O)N5CCC(F)(F)CC5)n4)cc3)cc2)c[nH]1)N1CCC(F)(F)CC1 (stereo partly drawn) [Compound W-189],>100
7,CC(C)C(NC(=O)C1CC1c1ccccc1)c1ncc(-c2ccc(-c3ccc(-c4cnc(C(NC(=O)C5CC5c5ccccc5)C(C)C)[nH]4)cc3)cc2)[nH]1 (stereo not drawn) [Compound S-21],>100
8,CC(C)(C)C(NC(=O)C1CC(=O)c2ccccc21)c1nc(-c2ccc(-c3ccc(-c4c[nH]c(C(NC(=O)C5CC(=O)c6ccccc65)C(C)(C)C)n4)cc3)cc2)c[nH]1 (mixture of isomers) [Compound S-257],>10
9,"COC(C)(CCO)C(=O)N[C@H](c1nc(-c2ccc(-c3ccc(-c4c[nH]c([C@@H](NC(=O)C(C)(CCO)OC)C(C)(C)C)n4)cc3)cc2)c[nH]1)C(C)(C)C (single isomer, unassigned) [Compound W-259]",>100
10,CC(C)[C@H](NC(=O)c1cccc(-c2ccccc2)c1)c1ncc(-c2ccc(-c3ccc(-c4cnc([C@@H](NC(=O)c5cccc(-c6ccccc6)c5)C(C)C)[nH]4)cc3)cc2)[nH]1 [Compound S-17],>100
11,"CC(C)(C)[C@H](NC(=O)[C@@]1(C)CCC(F)(F)CO1)c1ncc(-c2ccc(C34CCC(c5cnc([C@@H](NC(=O)[C@@]6(C)CCC(F)(F)CO6)C(C)(C)C)[nH]5)(CC3)CC4)cc2)[nH]1 [Compound B-186, (R)—N—((S)-1-(5-(4-(4-(2-((S)-1-((R)-5,5-difluoro-2-methyltetrahydro-2H-pyran-2-carboxamido)-2,2-dimethylpropyl)-1H-imidazol-5-yl)bicyclo[2.2.2]octan-1-yl)phenyl)-1H-imidazol-2-yl)-2,2-dimethylpropyl)-5,5-difluoro-2-methyltetrahydro-2H-pyran-2-carboxamide]",>100
12,CC1([C@H](NC(=O)C2(C)CCCC[C@@H]2O)c2ncc(-c3ccc(-c4ccc(-c5cnc([C@@H](NC(=O)C6(C)CCCC[C@@H]6O)C6(C)CC6)[nH]5)cc4)cc3)[nH]2)CC1 (stereo partly drawn) [Compound Y-116],>100
13,"CC(C)(C)OC(=O)N1CCCCC1(C)C(=O)N[C@H](c1nc(-c2ccc(-c3ccc(-c4c[nH]c([C@@H](NC(=O)C5(C)CCCCN5C(=O)OC(C)(C)C)C(C)(C)C)n4)cc3)cc2)c[nH]1)C(C)(C)C (single isomer, unassigned) [Compound L-46b]",>100
14,COCC1(C(=O)N[C@H](c2nc(-c3ccc(-c4ccc(-c5c[nH]c([C@@H](NC(=O)C6(COC)CCC6)C(C)(C)C)n5)cc4)cc3)c[nH]2)C(C)(C)C)CCC1 [Compound N-59],>100
15,CC1(C(=O)N[C@H](c2nc(-c3ccc(-c4ccc(-c5c[nH]c([C@@H](NC(=O)C6(C)COC6)C(C)(C)C)n5)cc4)cc3)c[nH]2)C(C)(C)C)COC1 [Compound N-113],>100
16,CC(C)[C@H](NC(=O)CC1CCCC1)c1ncc(-c2ccc(-c3ccc(-c4cnc([C@@H](NC(=O)CC5CCCC5)C(C)C)[nH]4)cc3)cc2)[nH]1 [Compound S-3],>100
17,CC(C)[C@H](NC(=O)CC1CCCCCC1)c1ncc(-c2ccc(-c3ccc(-c4cnc([C@@H](NC(=O)CC5CCCCCC5)C(C)C)[nH]4)cc3)cc2)[nH]1 [Compound S-56],>100
18,COC(=O)NC(C(=O)N1CCCC1c1ncc(-c2ccc(-c3ccc(-c4cnc(C(NC(=O)C5(C)CCC(F)(F)CO5)C(C)(C)C)[nH]4)cc3)cc2)[nH]1)C(C)C (stereo not drawn) [Compound B-193],>10
19,COC1(C(=O)C(=O)N[C@H](c2ncc(-c3ccc(-c4ccc(-c5cnc([C@@H](NC(=O)C(=O)C6(OC)CCC6)C(C)C)[nH]5)cc4)cc3)[nH]2)C(C)C)CCC1 [Compound P-116],>100
